Experimental data: patent US20260182575A1, “MOLECULES HAVING PESTICIDAL UTILITY AND INTERMEDIATES AND PROCESSES RELATED THERETO” (CORTEVA AGRISCIENCE LLC, priority 2022, published 2026)

Tests used:
Type in all cases: in vivo
[1] = tested on: Corn Earworm (Helicoverpa zea, HELIZE, CEW); assay: Bioassay 7: corn earworm, artificial diet, 96 well plate; conditions: AI alone at 0.4 wt %
Method: (§1) The test solutions were tested against CEW, FAW, BAW, and SBL using the following procedure: an artificial lepidopteran diet (Multispecies Lepidopteran Diet, Southland Products) was distributed in 96 well plate. Twenty μL of test solution was pipetted onto a cell in the bioassay plate. […] Each treatment was replicated 5 times for each species. Approximately five first instar CEW, FAW, BAW, or SBL larva were placed on top of the diet in each cell and was contained with a clear perforated adhesive lid. Test trays were held at approximately 25° C. and ambient relative humidity prior to grading. After five days, the number of cells where all the larvae were dead were recorded as 100% and averaged across all replicates; then the percent control was measured using Abbott's correction formula (W. S. Abbott, J. Econ. Entomol. 18 (1925), pp. 265-267) as follows:
(§2) where X=No. of live larvae on solvent check and Y=No. of live larvae on treated diet. In Table 7 the “Expected % Control” was calculated using the method described in Colby S. R., Weeds, 1967, 15, 20-22. Bioassay 8: Western Corn Rootworm (Diabrotica virgifera virgifera, DIABVI, “WCR”)

[2] = tested on: Western Corn Rootworm (Diabrotica virgifera virgifera, DIABVI, WCR); assay: Bioassay 8: western corn rootworm, soil drench, corn root protection; conditions: AI alone, DIABVI, soil drench, 13 days
Method: Corn seeds were planted in steam pasteurized soil filled greenhouse pots. Western corn rootworm Diabrotica virgifera virgifera eggs supplied from the Corteva Agriscience in Johnston, IA US, were suspended in a 0.08% agar solution added into the soil. Stock solutions of F1 and active ingredients were prepared at a concentration of either 250 or 500 ugai/10 mL for F1 and active ingredients at the ratios of (F1:AI) 1:0.004; 1:0.01; 1:0.02; 1:0.04; 1:0.08; 1:0.1; 1:0.15; 1:0.2; 1:0.4; 1:2; or 1:4, using a 1:1 solution of acetone:water as a diluent. A soil application of solutions were applied as a 10 mL drench over the soil. Plants were grown in the greenhouse for 13 days at 25 C after which the roots were removed from the soil, washed, and measured to determine the length of the median nodal roots. The measured lengths were compared to the infested and un-infested untreated checks to determine the mean percent control offered to protect the corn roots.

[3] = tested on: Fall Armyworm (Spodoptera frugiperda, LAPHFR, FAW); assay: Bioassay 7: fall armyworm, artificial diet, 96 well plate
Method: as §1, §2

[4] = tested on: Western Flower Thrips (Frankliniella occidentalis, FRANOC, WFT); assay: Bioassay 3: western flower thrips, cotton leaf disc dip; conditions: 3 days
Method: Stock solutions of F1 and various active ingredients were prepared initially at a concentration of 0.1 mg/mL using acetone as a diluent. Stock solutions were prepared with F1 as well as for each of the active ingredients individually. Test solutions were prepared from the stock solutions. Test solutions were prepared containing F1, the individual active ingredients, and mixtures of F1 with each of the active ingredients. The test solutions for F1 and the individual active ingredients were prepared by adding 500 μL of stock solution to a 25 mL glass vial, then adding 500 μL of acetone, followed by the addition of 9 mL water with 0.025% Tween® 20 to create a 0.0005% (w/v) solution. The test solutions containing mixtures of F1, and the individual active ingredients were prepared by adding 500 μL of the active ingredient stock solution to a 25 mL glass vial, followed by 500 μL of the F1 stock solution, then by the addition of 9 mL water with 0.025% Tween® 20 to create a test solution containing 0.0005% (w/v) F1 and 0.0005% (w/v) of the active ingredient. Each test solution was serially diluted to create desired doses of test solutions (0.0005% (w/v), 0.000125% (w/v), 0.00003125% (w/v), 0.0000078% (w/v), and 0.00000195% (w/v)).
The test solutions were tested against WFT using the following procedure: Leaf discs (2.7 cm in diameter) were cut from the true leaves of cotton plants. Leaf discs were dipped into the test solutions and shaken to ensure complete coverage of the leaf disc and then placed in Millipore® PetriSlides containing a filter paper disc. Treated leaf discs were air dried for approximately 1 hour. Each leaf disc was infested with 5 WFT (9-10-day old nymphs) by placement on each leaf disc, and the PetriSlides were capped to prevent escape. Each treatment was replicated three times and the test treatments were held at approximately 26° C. and ambient relative humidity (RH) prior to grading. Reference discs (solvent check) were treated with the diluent only. Evaluation was conducted by counting the number of live WFT under magnification 3 days after treatment. Percent control was measured using Abbott's correction formula (W. S. Abbott, J. Econ. Entomol. 18 (1925), pp. 265-267) as follows:
where X=No. of live nymphs on solvent check leaf discs and Y=No. of live nymphs on treated leaf discs. In Table B3 the “Expected % Control” was calculated using the method described in Colby S. R., Weeds, 1967, 15, 20-22. Bioassay 4: Corn Earworm (Helicoverpa zea, HELIZE, “CEW”), Fall Armyworm (Spodoptera frugiperda, LAPHFR, “FAW”), and Soybean Looper (Chrysodeixis includens, PSEPIN, “SBL”).

[5] = tested on: Corn Earworm (Helicoverpa zea, HELIZE, CEW); assay: Bioassay 4: corn earworm, artificial diet, 128-cell tray; conditions: AI alone
Procedure, shortened: (§3)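 Test solutions (0.0000004–0.04% w/v, i.e. 0.00005–5 μg/cm² on diet) were pipetted onto artificial lepidopteran diet and one 2nd-instar larva was placed per cell, 8 replicates per species, held at ~26° C. Live larvae were counted after 5 days; percent control used Abbott's correction against a solvent check.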

[6] = tested on: Fall Armyworm (Spodoptera frugiperda, LAPHFR, FAW); assay: Bioassay 4: fall armyworm, artificial diet, 128-cell tray; conditions: AI alone
Procedure, shortened: as §3

[7] = tested on: Soybean Looper (Chrysodeixis includens, PSEPIN, SBL); assay: Bioassay 4: soybean looper, artificial diet, 128-cell tray; conditions: AI alone, 0.000004 wt %
Procedure, shortened: as §3

[8] = tested on: Brown Planthopper (Nilaparvata lugens, NILALU, BPH); assay: Bioassay 6: brown planthopper, sprayed rice seedlings; conditions: AI alone, AI Rate 0.049 g/ha, 6 days
Method: At these rates, F1 and the individual active ingredients were tested at a ratio of 1:1. […] F1 and triflumezopyrim were tested at a ratio of 16:1. Test solutions were prepared containing F1, the individual active ingredients, and mixtures of F1 with each of the active ingredients. Test solutions were prepared by weighing 5 mg of each test chemistry (either alone or in combination depending on the treatment) into a 25 mL glass vial. Next, 1 mL of acetone was added to each vial to dissolve the test chemistries, followed by 19 mL of water with 0.125% Tween 20 adjuvant. This test solution represented the 50 g/ha treatment, which was then serially diluted four-fold to create the three lower rates of 12.5, 3.125, and 0.78 g/ha. Triflumezopyrim was prepared in a similar manner, but two additional serial dilutions were conducted to create solutions representing 6 rates of 12.5, 3.125, 0.78, 0.19, 0.049, and 0.012 g/ha. The higher two doses were discarded, and the four lower doses were used for testing. Each rate was replicated four times, and solvent blanks were used as control treatments.
Five (5) rice seedlings (10-12 days old) planted in 3-inch pots were used as test plants. Rice seedlings were grown in soil and the soil was covered with a 2% agar solution. The test solutions were applied to test plants using a Devries laboratory research sprayer, set to spray at 200 liters per hectare (L/ha) using a TeeJet hollow cone nozzle. Following application, the rice seedlings were dried for 1 hour, after which a single clear plastic tube (2 inches in diameter×12 inches in height) was placed over the seedlings in each pot. The tube was pushed down into the agar to create a sealed test chamber. The agar prevented insects from hiding in the soil and made adult collection and grading easier. Ten to fifteen (10-15) 5th instar BPH nymphs were transferred to each test chamber using a vacuum aspirator. Immediately following BPH infestation, the test chamber was covered with a piece of grade 90 cheesecloth and secured with a rubber band, sealing the test chamber. The test chambers were held at 25° C. for 6 days, after which the total number of live insects was counted in each test chamber. Percent control was measured using Abbott's correction formula (W. S. Abbott, J. Econ. Entomol. 18 (1925), pp. 265-267) as follows:
where X=No. of live insects on solvent check and Y=No. of live insects in treated chambers. In Table B6 the “Expected % Control” was calculated using the method described in Colby S. R., Weeds, 1967, 15, 20-22. Bioassay 7: Corn Earworm (Helicoverpa zea, HELIZE, “CEW”), Fall Armyworm (Spodoptera frugiperda, LAPHFR, “FAW”), Beet Armyworm (Spodoptera exigua, LAPHEG, “BAW”),and Soybean Looper (Chrysodeixis includens, PSEPIN, “SBL”).

[9] = tested on: Beet Armyworm (Spodoptera exigua, LAPHEG, BAW); assay: Bioassay 7: beet armyworm, artificial diet, 96 well plate; conditions: AI alone at 0.4 wt %
Method: as §1, §2

[10] = tested on: Soybean Looper (Chrysodeixis includens, PSEPIN, SBL); assay: Bioassay 7: soybean looper, artificial diet, 96 well plate; conditions: CL; AI alone at 0.4 wt %
Method: as §1, §2

Molecule: OC(Cc1ccccc1Cl)(Cn1nc[nH]c1=S)C1(Cl)CC1 (centres unmarked) [Prothioconazole]
- Average % Control AI [1]: 0.0%
- Average % Control AI ([2]; UgActive AI 20): 0.0%

Molecule: CC1(C)[C@H](C(=O)O[C@H](C#N)c2cccc(Oc3ccccc3)c2)[C@@H]1C=C(Br)Br [Deltamethrin]
- Average % Control AI ([3]; AI alone at 0.004 wt %): 0.0%
- Average % Control AI ([2]; UgActive AI 1): 17.0%

Molecule: CCN(C(=O)CCS(C)(=O)=O)c1sc(-c2cccnc2)nc1Cl [AI-1, N-(4-chloro-2-(pyridin-3-yl)thiazol-5-yl)-N-ethyl-3-(methylsulfonyl)propanamide]
- Average % Control AI ([4]; AI alone at 1:1 rate to F1 0.78 (10^-6 Wt %)): 9.5%
- Average % Control AI ([5]; 0.000004 wt %): 0.0%
- Average % Control AI ([5]; 0.00004 wt %): 0.0%
- Average % Control AI ([6]; 0.000004 wt %): 0.0%
- Average % Control AI [7]: 12.5%
- Average % Control AI [8]: 0.0%

Molecule: CC1(C)CCC(=Cc2ccc(Cl)cc2)C1(O)Cn1cncn1 (centres unmarked) [Titriconazole]
- Average % Control AI [1]: 0.0%
- Average % Control AI [9]: 0.0%
- Average % Control AI ([2]; UgActive AI 100): 0.0%

Molecule: Spinetoram
- Average % Control AI ([5]; 0.000004 wt %): 0.0%
- Average % Control AI ([5]; 0.00004 wt %): 25.0%
- Average % Control AI ([6]; 0.000004 wt %): 0.0%
- Average % Control AI [7]: 25.0%
- Average % Control AI [8]: 2.5%

Molecule: Abamectin
- Average % Control AI ([4]; AI alone at 1:1 rate to F1 3.125 (10^-6 Wt %)): 31.0%
- Average % Control AI ([5]; 0.000004 wt %): 0.0%
- Average % Control AI ([5]; 0.00004 wt %): 0.0%
- Average % Control AI ([6]; 0.00004 wt %): 0.0%
- Average % Control AI [8]: 40.7%

Molecule: Cn1cc(C(=O)Nc2ccccc2C2CC2C2CC2)c(C(F)F)n1 (centres unmarked) [Sedaxane]
- Average % Control AI [1]: 0.0%
- Average % Control AI ([3]; AI alone at 0.4 wt %): 0.0%
- Average % Control AI [9]: 0.0%
- Average % Control AI [10]: 0.0%
- Average % Control AI ([2]; UgActive AI 10): 0.0%

Molecule: Thiabendazole
- Average % Control AI [1]: 0.0%
- Average % Control AI [9]: 0.0%
- Average % Control AI ([2]; UgActive AI 50): 16.8%

Molecule: Inpyrfluxam
- Average % Control AI [1]: 12.5%
- Average % Control AI ([3]; AI alone at 0.4 wt %): 0.0%
- Average % Control AI [10]: 0.0%
- Average % Control AI ([2]; UgActive AI 1): 0.0%
